Values after ≈ are worked out from the molar mass of the structure shown. Active and inactive are the calls of the source. The calls are words filed in the database; no cut-off is given here.
Experiments:
[1] = target: T1, Peroxisome proliferator-activated receptor delta (Homo sapiens) (UniProt Q03181); experiment: Agonist activity at PPARdelta (unknown origin) at 10 uM
T1 sequence (whole entry): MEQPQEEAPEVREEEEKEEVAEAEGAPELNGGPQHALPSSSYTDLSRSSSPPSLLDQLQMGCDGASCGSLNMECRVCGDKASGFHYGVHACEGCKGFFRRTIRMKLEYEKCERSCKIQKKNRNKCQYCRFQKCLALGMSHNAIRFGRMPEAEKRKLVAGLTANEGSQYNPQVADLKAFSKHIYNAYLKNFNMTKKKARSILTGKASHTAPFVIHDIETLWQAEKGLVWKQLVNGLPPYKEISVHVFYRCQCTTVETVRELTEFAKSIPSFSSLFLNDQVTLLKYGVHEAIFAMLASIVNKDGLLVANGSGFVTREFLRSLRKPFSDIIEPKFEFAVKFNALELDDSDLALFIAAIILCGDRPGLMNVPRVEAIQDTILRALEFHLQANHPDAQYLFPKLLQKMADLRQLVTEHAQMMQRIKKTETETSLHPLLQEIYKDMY

[2] = Aqueous thermodynamic solubility of the compound in pH 6.8 solution up to 4 hrs by HPLC-UV analysis; format: physicochemical; conditions: read-out: Therm_solubility
Rattus norvegicus [3] = experiment: Toxicity in Zucker diabetic fatty rat assessed as body weight gain at 3 mg/kg, po administered once daily for 14 days relative to control; format: organism-based; conditions: in vivo, 336 h
[4] = Apparent permeability of the compound after 4 hrs by PAMPA; format: ADME
[5] = target: T2, Peroxisome proliferator-activated receptor alpha (Homo sapiens) (UniProt Q07869); experiment: Agonist activity at recombinant human GAL4-DBD fused PPARalpha LBD expressed in COS7 cells at 10 uM after 24 hrs by luciferase reporter gene assay relative to 2-(4-tert-Butylphenoxy)-3-[4-[2-[(4-pyridin-2-ylbenzoyl)amino]ethoxy] phenyl]propionic acid; format: cell-based
T2 sequence (whole entry): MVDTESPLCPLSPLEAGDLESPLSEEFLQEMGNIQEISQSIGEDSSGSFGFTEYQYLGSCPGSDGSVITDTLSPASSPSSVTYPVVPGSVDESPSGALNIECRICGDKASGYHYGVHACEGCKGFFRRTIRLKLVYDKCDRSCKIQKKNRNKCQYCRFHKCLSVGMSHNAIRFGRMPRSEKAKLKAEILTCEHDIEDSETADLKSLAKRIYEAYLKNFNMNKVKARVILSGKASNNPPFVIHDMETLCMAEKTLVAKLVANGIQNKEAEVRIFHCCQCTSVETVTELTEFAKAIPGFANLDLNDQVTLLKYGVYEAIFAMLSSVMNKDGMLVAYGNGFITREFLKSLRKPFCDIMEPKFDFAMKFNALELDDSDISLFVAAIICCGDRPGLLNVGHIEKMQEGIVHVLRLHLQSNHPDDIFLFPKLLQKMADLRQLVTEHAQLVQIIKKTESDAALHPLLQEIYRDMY

Rattus norvegicus [6] = experiment: Antidiabetic activity in Zucker diabetic fatty rat assessed as reduction in plasma glucose level at 3 mg/kg, po administered once daily for 14 days measured on day 15 relative to control; format: functional; parameters: scale not given: the % may be the effect or the level left
[7] = Cmax in Zucker diabetic fatty rat at 3 mg/kg, po dosed once daily for 14 days and followed by additional administration on day 15; format: ADME, organism-based; parameters: dose 3 mg/kg, route oral; conditions: in vivo
[8] = Metabolic stability in human liver microsomes after 0.5 hrs; format: ADME, microsome; conditions: read-out: Stability
[9] = AUC (0 to 24 hrs) in Zucker diabetic fatty rat at 3 mg/kg, po dosed once daily for 14 days and followed by additional administration on day 15; format: ADME, organism-based; parameters: time < 24 hr, dose 3 mg/kg, route oral; conditions: in vivo
[10] = target: T3, Peroxisome proliferator-activated receptor gamma (Homo sapiens) (UniProt P37231); experiment: Agonist activity at recombinant human GAL4-DBD fused PPARgamma LBD expressed in COS7 cells at 10 uM after 24 hrs by luciferase reporter gene assay relative to rosiglitazone; format: cell-based
T3 sequence (whole entry): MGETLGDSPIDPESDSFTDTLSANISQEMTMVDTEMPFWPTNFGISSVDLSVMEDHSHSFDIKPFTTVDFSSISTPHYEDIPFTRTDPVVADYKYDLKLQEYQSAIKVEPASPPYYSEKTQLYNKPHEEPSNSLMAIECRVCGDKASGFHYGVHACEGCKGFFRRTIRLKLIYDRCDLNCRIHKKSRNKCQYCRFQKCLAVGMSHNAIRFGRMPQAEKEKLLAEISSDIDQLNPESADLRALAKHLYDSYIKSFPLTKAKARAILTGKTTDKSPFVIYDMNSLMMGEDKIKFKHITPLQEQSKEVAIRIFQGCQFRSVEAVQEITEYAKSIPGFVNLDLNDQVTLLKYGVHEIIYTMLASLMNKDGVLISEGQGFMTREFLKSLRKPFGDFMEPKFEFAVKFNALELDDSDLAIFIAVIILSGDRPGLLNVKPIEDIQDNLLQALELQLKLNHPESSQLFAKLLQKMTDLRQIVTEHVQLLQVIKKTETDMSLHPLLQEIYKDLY

[11] = Metabolic stability in rat liver microsomes after 0.5 hrs; format: ADME, microsome; conditions: read-out: Stability
[12] = target: T4, Peroxisome proliferator-activated receptor gamma (Homo sapiens, UniProt P37231); experiment: Agonist activity at recombinant human GAL4-DBD fused PPARgamma LBD expressed in COS7 cells after 24 hrs by luciferase reporter gene assay; format: cell-based
T4 sequence (P37231 whole entry): T3 sequence (whole entry)

[13] = 1-octanol/PBS distribution co-efficient, log D of the compound at […] at pH 7.4 after 30 mins by HPLC-MS/MS method; format: physicochemical
[14] = Tmax in Zucker diabetic fatty rat at 3 mg/kg, po dosed once daily for 14 days and followed by additional administration on day 15; format: ADME, organism-based; conditions: in vivo
[15] = target: T5, Peroxisome proliferator-activated receptor alpha (Homo sapiens, UniProt Q07869); experiment: Agonist activity at recombinant human GAL4-DBD fused PPARalpha LBD expressed in COS7 cells after 24 hrs by luciferase reporter gene assay; format: cell-based
T5 sequence (Q07869 whole entry): T2 sequence (whole entry)

[16] = Tmax in cynomolgus monkey at 3 mg/kg, po by LC-MS/MS; format: ADME, organism-based, Macaca fascicularis; conditions: in vivo
[17] = Half life in cynomolgus monkey at 3 mg/kg, po by LC-MS/MS; format: ADME, organism-based, Macaca fascicularis; conditions: in vivo
[18] = Oral bioavailability in cynomolgus monkey at 3 mg/kg by LC-MS/MS; format: ADME, organism-based, Macaca fascicularis; conditions: in vivo
[19] = Cmax in cynomolgus monkey at 3 mg/kg, po by LC-MS/MS; format: ADME, organism-based, Macaca fascicularis; parameters: dose 3 mg/kg, route oral; conditions: in vivo
[20] = Volume of distribution at steady state in cynomolgus monkey at 1 mg/kg, iv by LC-MS/MS; format: ADME, organism-based, Macaca fascicularis; conditions: in vivo, read-out: Vdss
[21] = Metabolic stability in cynomolgus monkey liver microsomes after 0.5 hrs; format: ADME, Macaca fascicularis, microsome; conditions: read-out: Stability
[22] = Clearance in cynomolgus monkey at 1 mg/kg, iv by LC-MS/MS; format: ADME, organism-based, Macaca fascicularis; conditions: in vivo
[23] = AUClast in cynomolgus monkey at 3 mg/kg, po by LC-MS/MS; format: ADME, organism-based, Macaca fascicularis; parameters: dose 3 mg/kg, time 0 - last, route oral; conditions: in vivo
Hepatocyte [24] = experiment: Cytotoxicity against F344/DuCrlCrlj rat primary hepatocytes assessed as reduction in cell viability at 10 to 100 uM after 24 hrs by LDH release assay; format: cell-based
Hepatocyte [25] = experiment: Cytotoxicity against F344/DuCrlCrlj rat primary hepatocytes assessed as reduction in mitochondrial enzyme activity at 10 to 100 uM after 24 hrs by WST8 assay; format: cell-based

| Compound | Activity [1] | solubility thermodynamic at 4 h [2] | Activity (Rattus norvegicus [3]) | Papp at 4 h [4] | Emax [5] | Activity (Rattus norvegicus [6]) | Cmax [7] | remaining at 0.5 h [8] | AUC at 24 h [9] | Emax [10] | remaining at 0.5 h [11] | EC50 [12] | logD at 0.5 h [13] | Tmax [14] | EC50 [15] | Tmax [16] | half-life [17] | bioavailability [18] | Cmax [19] | Vd [20] | also measured |
| --- | --- | --- | --- | --- | --- | --- | --- | --- | --- | --- | --- | --- | --- | --- | --- | --- | --- | --- | --- | --- | --- |
| Cn1c(COc2cccc(C(=O)O)c2)nc2cnc(Oc3ccc4c(c3)CCC4)cc21 | inactive | 70 µg/mL (≈ 168 µM) | 6.3% | 16.5 ×10⁻⁶ cm/s | 22% | 1.3% | 410 ng/mL | 100% | 2410 ng·h/mL | 55% | 81% | 20 nM | 1.6 | 2 h | > 10000 nM | – | – | – | – | – | – |
| Cc1cnc(Oc2ccc3nc(COc4cccc(C(=O)O)c4)n(C)c3c2)c(C)c1 | – | – | – | – | – | 57% | 180 ng/mL | – | 2490 ng·h/mL | – | 92% | – | 1.4 | 3.2 h | – | 5 h | 13.5 h | 89% | 2250 ng/mL | 0.36 L/kg | remaining at 0.5 h [21]: 80%; clearance [22]: 2.06 mL/min/kg; AUC(0-t) [23]: 23500 ng·h/mL |
| Cn1c(COc2cccc(C(=O)O)c2)nc2ccc(Oc3ccc(Cl)cn3)cc21 | – | 17 µg/mL (≈ 41.5 µM) | 0.2% | 16.2 ×10⁻⁶ cm/s | 3% | 14.8% | 66 ng/mL | 100% | 1010 ng·h/mL | 66% | 100% | 71 nM | 1.2 | 4.4 h | > 10000 nM | – | – | – | – | – | – |
| Cn1c(COc2cccc(C(=O)O)c2)nc2ccc(Oc3ccc4c(c3)CCC4)nc21 | inactive | 4.3 µg/mL (≈ 10.4 µM) | 14% | 31.5 ×10⁻⁶ cm/s | 23% | 70.4% | 600 ng/mL | 76% | 4080 ng·h/mL | 79% | 71% | 25 nM | 2.5 | 2 h | > 10000 nM | – | – | – | – | – | – |
| Cc1cc(Cl)cnc1Oc1ccc2nc(COc3cccc(C(=O)O)c3)n(C)c2c1 | – | 3.9 µg/mL (≈ 9.2 µM) | 18.5% | 13.7 ×10⁻⁶ cm/s | 7% | 54.1% | 120 ng/mL | 85% | 1250 ng·h/mL | 92% | 81% | 21 nM | 1.8 | 2.4 h | > 10000 nM | – | – | – | – | – | – |
| Cn1c(COc2cccc(C(=O)O)c2)nc2ccc(Oc3ccc4c(c3)OCC4)nc21 | inactive | 17 µg/mL (≈ 40.7 µM) | 7.1% | 9.1 ×10⁻⁶ cm/s | 20% | 55.3% | 630 ng/mL | 92% | 3390 ng·h/mL | 89% | 89% | 94 nM | 1.4 | 2 h | > 10000 nM | 1.5 h | 13.3 h | 27% | 460 ng/mL | 1.97 L/kg | Activity (Hepatocyte [24]): Non-Toxic; Activity (Hepatocyte [25]): Non-Toxic; remaining at 0.5 h [21]: 88%; clearance [22]: 2.73 mL/min/kg; AUC(0-t) [23]: 4910 ng·h/mL |
